According to ChEMBL document CHEMBL5678818, “Discovery of potent SOS1 inhibitors that block RAS activation via disruption of the RAS-SOS1 interaction” (Proc Natl Acad Sci U S A, 2019):

Assays:
[1] = target: T1, Son of sevenless homolog 1 (Homo sapiens) (UniProt Q07889); test: Binding affinity to N-terminal His10-tagged wild-type recombinant human SOS1 catalytic domain (564 to 1049 residues) expressed in Escherichia coli assessed as change in Gibbs free energy by ITC analysis
T1 sequence (whole entry): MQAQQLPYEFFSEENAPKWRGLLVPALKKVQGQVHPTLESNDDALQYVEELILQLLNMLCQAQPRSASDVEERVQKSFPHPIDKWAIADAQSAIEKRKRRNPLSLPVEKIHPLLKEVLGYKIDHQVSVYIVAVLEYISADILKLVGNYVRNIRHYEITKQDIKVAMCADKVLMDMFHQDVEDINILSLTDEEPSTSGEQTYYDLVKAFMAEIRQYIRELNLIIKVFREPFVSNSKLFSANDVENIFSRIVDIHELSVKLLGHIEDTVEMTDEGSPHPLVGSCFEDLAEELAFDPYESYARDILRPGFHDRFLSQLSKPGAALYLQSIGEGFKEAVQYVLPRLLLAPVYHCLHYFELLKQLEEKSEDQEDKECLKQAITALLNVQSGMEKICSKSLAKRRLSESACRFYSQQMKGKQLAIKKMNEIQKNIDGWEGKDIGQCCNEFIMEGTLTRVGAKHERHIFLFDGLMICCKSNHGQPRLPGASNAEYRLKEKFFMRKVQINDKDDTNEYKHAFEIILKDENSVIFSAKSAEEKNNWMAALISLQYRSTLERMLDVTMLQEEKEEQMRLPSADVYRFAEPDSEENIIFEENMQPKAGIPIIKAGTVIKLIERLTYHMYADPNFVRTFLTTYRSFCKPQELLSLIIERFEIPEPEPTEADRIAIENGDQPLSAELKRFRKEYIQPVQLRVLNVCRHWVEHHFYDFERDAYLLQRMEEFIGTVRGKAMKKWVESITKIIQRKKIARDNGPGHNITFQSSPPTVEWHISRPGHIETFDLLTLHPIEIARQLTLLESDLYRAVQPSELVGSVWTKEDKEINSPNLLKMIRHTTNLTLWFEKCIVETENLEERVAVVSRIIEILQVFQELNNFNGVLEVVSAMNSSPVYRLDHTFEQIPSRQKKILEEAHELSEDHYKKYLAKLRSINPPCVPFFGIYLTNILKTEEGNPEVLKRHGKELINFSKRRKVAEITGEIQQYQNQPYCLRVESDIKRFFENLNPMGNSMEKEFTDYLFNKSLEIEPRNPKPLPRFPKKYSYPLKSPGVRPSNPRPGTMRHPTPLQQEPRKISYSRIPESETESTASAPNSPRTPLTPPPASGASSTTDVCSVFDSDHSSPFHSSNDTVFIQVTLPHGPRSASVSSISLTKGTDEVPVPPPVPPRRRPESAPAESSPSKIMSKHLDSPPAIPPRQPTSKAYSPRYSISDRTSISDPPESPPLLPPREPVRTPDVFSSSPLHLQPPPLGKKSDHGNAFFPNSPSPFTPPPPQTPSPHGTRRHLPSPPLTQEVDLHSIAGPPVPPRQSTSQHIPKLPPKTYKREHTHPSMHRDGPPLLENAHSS

[2] = target: Dual specificity tyrosine-phosphorylation-regulated kinase 1B (Homo sapiens) (UniProt Q9Y463); test: Inhibition of DYRK1B (unknown origin) assessed as residual activity at 100 nM by KINOMEscan analysis relative to control
[3] = target: Dual specificity mitogen-activated protein kinase kinase 1 (Homo sapiens) (UniProt Q02750); test: Inhibition of MEK1 (unknown origin) assessed as residual activity at 100 nM by KINOMEscan analysis relative to control
[4] = target: T2, SNF-related serine/threonine-protein kinase (Homo sapiens) (UniProt Q9NRH2); test: Inhibition of SNRK (unknown origin) assessed as residual activity at 100 nM by KINOMEscan analysis relative to control
T2 sequence (whole entry): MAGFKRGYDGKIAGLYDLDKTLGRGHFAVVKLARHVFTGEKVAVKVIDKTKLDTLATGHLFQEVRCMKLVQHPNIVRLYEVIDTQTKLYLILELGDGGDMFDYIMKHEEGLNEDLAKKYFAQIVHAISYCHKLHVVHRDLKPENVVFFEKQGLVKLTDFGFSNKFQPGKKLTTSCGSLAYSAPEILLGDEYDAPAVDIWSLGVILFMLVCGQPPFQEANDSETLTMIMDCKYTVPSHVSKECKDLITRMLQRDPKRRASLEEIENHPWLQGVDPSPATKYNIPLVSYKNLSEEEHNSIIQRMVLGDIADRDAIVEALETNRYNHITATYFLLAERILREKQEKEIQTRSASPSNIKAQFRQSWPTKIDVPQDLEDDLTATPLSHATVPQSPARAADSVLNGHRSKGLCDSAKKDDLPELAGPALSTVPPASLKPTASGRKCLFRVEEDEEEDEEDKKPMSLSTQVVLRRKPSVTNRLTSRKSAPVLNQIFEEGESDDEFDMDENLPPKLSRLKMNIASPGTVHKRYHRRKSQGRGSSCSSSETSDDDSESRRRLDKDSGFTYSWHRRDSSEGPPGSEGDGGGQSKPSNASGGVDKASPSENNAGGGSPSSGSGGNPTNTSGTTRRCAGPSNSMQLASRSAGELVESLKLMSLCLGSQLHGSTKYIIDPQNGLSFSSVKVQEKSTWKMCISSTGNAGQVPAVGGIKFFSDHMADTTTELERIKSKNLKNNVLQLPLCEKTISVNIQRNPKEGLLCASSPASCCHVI

[5] = target: G protein-coupled receptor kinase 3 (Homo sapiens) (UniProt P35626); test: Inhibition of GRK3 (unknown origin) assessed as residual activity at 1000 nM by KINOMEscan analysis relative to control
Chain of G protein-coupled receptor kinase 3 (Homo sapiens) (P35626 whole entry): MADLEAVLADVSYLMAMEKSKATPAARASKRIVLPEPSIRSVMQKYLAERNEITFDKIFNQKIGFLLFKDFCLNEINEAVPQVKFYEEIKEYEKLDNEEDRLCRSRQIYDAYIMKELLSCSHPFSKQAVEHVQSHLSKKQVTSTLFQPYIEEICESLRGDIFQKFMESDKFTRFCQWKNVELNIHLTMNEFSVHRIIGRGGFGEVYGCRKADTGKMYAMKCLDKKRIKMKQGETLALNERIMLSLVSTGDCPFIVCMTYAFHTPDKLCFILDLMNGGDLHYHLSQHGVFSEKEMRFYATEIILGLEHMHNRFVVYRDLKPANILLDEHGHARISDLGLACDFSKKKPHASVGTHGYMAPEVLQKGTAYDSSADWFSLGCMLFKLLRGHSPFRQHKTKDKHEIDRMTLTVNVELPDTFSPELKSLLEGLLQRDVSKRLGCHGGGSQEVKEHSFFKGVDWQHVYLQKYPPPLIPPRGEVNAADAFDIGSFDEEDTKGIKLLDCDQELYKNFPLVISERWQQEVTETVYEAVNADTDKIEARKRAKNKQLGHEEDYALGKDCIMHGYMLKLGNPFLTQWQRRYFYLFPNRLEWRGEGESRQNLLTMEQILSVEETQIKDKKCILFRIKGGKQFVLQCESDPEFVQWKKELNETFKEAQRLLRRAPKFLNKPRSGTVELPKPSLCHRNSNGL

Chain of Dual specificity tyrosine-phosphorylation-regulated kinase 1B (Homo sapiens) (Q9Y463 whole entry, looked up): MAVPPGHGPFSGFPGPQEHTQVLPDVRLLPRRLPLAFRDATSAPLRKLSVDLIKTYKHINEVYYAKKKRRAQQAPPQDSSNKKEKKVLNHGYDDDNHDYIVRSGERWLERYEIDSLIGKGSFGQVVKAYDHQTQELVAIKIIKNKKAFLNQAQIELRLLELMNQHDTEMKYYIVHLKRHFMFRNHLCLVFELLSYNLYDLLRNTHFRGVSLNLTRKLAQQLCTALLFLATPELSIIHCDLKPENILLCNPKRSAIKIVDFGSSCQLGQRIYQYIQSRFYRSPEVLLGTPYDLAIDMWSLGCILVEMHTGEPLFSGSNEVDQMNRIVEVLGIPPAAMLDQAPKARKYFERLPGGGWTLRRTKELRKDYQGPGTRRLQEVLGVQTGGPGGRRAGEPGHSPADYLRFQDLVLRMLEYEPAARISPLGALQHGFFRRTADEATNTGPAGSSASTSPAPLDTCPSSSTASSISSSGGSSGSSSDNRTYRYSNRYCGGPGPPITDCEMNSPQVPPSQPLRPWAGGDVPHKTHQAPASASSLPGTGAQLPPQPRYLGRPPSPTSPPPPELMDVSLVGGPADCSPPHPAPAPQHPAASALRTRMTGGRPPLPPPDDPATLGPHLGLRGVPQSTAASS
Chain of Dual specificity mitogen-activated protein kinase kinase 1 (Homo sapiens) (Q02750 whole entry): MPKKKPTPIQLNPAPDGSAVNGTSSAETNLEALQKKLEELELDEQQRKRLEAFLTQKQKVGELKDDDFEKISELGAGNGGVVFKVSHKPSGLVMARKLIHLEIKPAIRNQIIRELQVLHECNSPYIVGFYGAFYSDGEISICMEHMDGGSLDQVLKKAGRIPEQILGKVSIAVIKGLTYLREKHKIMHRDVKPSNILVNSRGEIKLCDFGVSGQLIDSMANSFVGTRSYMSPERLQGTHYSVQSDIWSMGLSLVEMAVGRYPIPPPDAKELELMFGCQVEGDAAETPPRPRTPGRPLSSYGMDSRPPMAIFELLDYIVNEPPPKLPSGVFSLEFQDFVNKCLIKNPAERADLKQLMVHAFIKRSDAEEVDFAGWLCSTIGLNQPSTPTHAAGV

Row | SMILES | deltaG [1] [kcal/mol] | Activity [2] [%] | Activity [3] [%] | Activity [4] [%] | Activity [5] [%]
1 | COc1cc2ncnc(N[C@H](C)c3cccc4ccccc34)c2cc1OC | -8.6 | 76 | 98 | 74 | –
2 | COc1cc2nc(C)nc(N[C@H](C)c3cccc(-c4cn[nH]c4)c3)c2cc1OC | – | – | – | – | 76
